Patent US10457703B2, “Bile acid derivatives as FXR/TGR5 agonists and methods of use thereof” (ENANTA PHARMACEUTICALS, INC., priority 2015, dated 2019)

Target: human FXR (NR1H4) (Homo sapiens (Human), UniProt Q96RI1)
Assay: Human FXR (NR1H4) Assay (Gal4 promoter driven luciferase reporter, Indigo Bioscience kit);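 on Efficacy (%): 100% equals the efficacy of CDCA; efficacy normalized to CDCA set as 100%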
Format: cell-based
Conditions: for EC50: Human FXR (NR1H4) Assay, potency ranges; for Emax: read-out: Efficacy (%)
Source text: ASSAYS Human FXR (NR1H4) Assay
Determination of a ligand mediated Gal4 promoter driven transactivation to quantify ligand binding mediated activation of FXR. FXR Reporter Assay kit purchased from Indigo Bioscience (Catalogue number: IB00601) to determine the potency and efficacy of compound developed by Enanta that can induce FXR activation. The principle application of this reporter assay system is to quantify functional activity of human FXR. The assay utilizes non-human mammalian cells, CHO (Chinese hamster ovary) cells engineered to express human NR1H4 protein (referred to as FXR). Reporter cells also incorporate the cDNA encoding beetle luciferase which catalyzes the substrates and yields photon emission. Luminescence intensity of the reaction is quantified using a plate-reading luminometer, Envision. Reporter Cells include the luciferase reporter gene functionally linked to an FXR responsive promoter. Thus, quantifying changes in luciferase expression in the treated reporter cells provides a sensitive surrogate measure of the changes in FXR activity. […] The assay is according to the manufacturer's instructions. In brief, the assay was performed in white, 96 well plates using final volume of 100 uL containing cells with different doses of compounds. Retrieve Reporter Cells from −80° C. storage. Perform a rapid thaw of the frozen cells by transferring a 10 ml volume of 37° C. cell recovery medium into the tube of frozen cells. Recap the tube of Reporter Cells and immediately place it in a 37° C. water bath for 5-10 minutes. Retrieve the tube of Reporter Cell Suspension from the water bath. Sanitize the outside surface of the tube with a 70% alcohol swab, and then transfer it into the cell culture hood. Dispense 90 μl of cell suspension into each well of the 96-well Assay Plate. Transfer the plate into 37° C. incubator, allowing the cells adherent to the bottom of the well. Dilute compounds in Dilution Plate (DP), and administrate to cells at Assay Plate (AP). DMSO content of the samples was kept at 0.2%. Cells were incubated for additional 22 hours before luciferase activities were measured. Thirty minutes before intending to quantify FXR activity, remove Detection Substrate and Detection Buffer from the refrigerator and place them in a low-light area so that they may equilibrate to room temperature. Remove the plate's lid and discard all media contents by ejecting it into an appropriate waste container. Gently tap the inverted plate onto a clean absorbent paper towel to remove residual droplets. Cells will remain tightly adhered to well bottoms. Add 100 μl of luciferase detection reagent to each well of the assay plate. Allow the assay plate to rest at room temperature for at least 5 minutes following the addition of LDR. Set the instrument (Envision) to perform a single 5 second “plate shake” prior to reading the first assay well. Read time may be 0.5 second (500 mSec) per well.

human FXR (NR1H4), sequence (Q96RI1 whole entry, the tested form may be a part): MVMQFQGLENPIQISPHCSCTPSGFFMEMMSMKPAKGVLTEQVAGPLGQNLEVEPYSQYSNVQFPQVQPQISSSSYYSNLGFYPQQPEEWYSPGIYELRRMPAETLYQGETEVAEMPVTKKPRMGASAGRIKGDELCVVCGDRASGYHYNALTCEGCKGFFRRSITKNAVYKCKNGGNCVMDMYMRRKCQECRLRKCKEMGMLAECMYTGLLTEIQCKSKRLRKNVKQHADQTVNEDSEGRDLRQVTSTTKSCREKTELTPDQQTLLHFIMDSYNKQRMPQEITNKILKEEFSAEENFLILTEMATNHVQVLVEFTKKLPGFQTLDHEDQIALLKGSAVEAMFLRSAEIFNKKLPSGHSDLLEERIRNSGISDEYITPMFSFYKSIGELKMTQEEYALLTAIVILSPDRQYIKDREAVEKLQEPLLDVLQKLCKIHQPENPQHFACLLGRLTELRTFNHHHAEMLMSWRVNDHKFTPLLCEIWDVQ

| SMILES | EC50 [nM] | Emax [%] |
| --- | --- | --- |
| CC[C@H]1[C@@H](O)[C@@H]2[C@H](CC[C@]3(C)[C@@H]([C@H](C)CCOC(=O)NS(=O)(=O)C4(C)CC4)CC[C@@H]23)[C@@]2(C)CC[C@@H](O)C[C@@H]12 [Example 49] | < 100 | 269 |
| CC[C@H]1[C@@H](O)[C@@H]2[C@H](CC[C@]3(C)[C@@H]([C@H](C)CCOC(=O)NS(=O)(=O)N(C)C)CC[C@@H]23)[C@@]2(C)CC[C@@H](O)C[C@@H]12 [Example 50] | < 100 | 291 |
| CC[C@H]1[C@@H](O)[C@@H]2[C@H](CC[C@]3(C)[C@@H]([C@H](C)CCOC(=O)NS(=O)(=O)N4CCCC4)CC[C@@H]23)[C@@]2(C)CC[C@@H](O)C[C@@H]12 [Example 51] | < 100 | 218 |
| CC[C@H]1[C@@H](O)[C@@H]2[C@H](CC[C@]3(C)[C@@H]([C@H](C)CCOC(=O)NS(=O)(=O)c4ccc(OC)cc4)CC[C@@H]23)[C@@]2(C)CC[C@@H](O)C[C@@H]12 [Example 52] | < 100 | 226 |
| CC[C@H]1[C@@H](O)[C@@H]2[C@H](CC[C@]3(C)[C@@H]([C@H](C)CCOC(=O)NS(=O)(=O)c4ccc(OC(F)(F)F)cc4)CC[C@@H]23)[C@@]2(C)CC[C@@H](O)C[C@@H]12 [Example 53] | < 100 | 411 |
| CC[C@H]1[C@@H](O)[C@@H]2[C@H](CC[C@]3(C)[C@@H]([C@H](C)CCOC(=O)NS(=O)(=O)c4cccc(C(C)(C)C)c4)CC[C@@H]23)[C@@]2(C)CC[C@@H](O)C[C@@H]12 [Example 54] | 100 to 1000 | 290 |
| CC[C@H]1[C@@H](O)[C@@H]2[C@H](CC[C@]3(C)[C@@H]([C@H](C)CCOC(=O)NS(=O)(=O)c4ccc(C(C)(C)C(=O)OC)cc4)CC[C@@H]23)[C@@]2(C)CC[C@@H](O)C[C@@H]12 [Example 55] | < 100 | 258 |
| CC[C@H]1[C@@H](O)[C@@H]2[C@H](CC[C@]3(C)[C@@H]([C@H](C)CCOC(=O)NS(=O)(=O)Cc4ccccc4)CC[C@@H]23)[C@@]2(C)CC[C@@H](O)C[C@@H]12 [Example 56] | < 100 | 326 |
| CCCCS(=O)(=O)NC(=O)OCC[C@@H](C)[C@H]1CC[C@H]2[C@@H]3[C@H](O)[C@H](CC)[C@@H]4C[C@H](O)CC[C@]4(C)[C@H]3CC[C@]12C [Example 57] | < 100 | 392 |
| CC[C@H]1[C@@H](O)[C@@H]2[C@H](CC[C@]3(C)[C@@H]([C@H](C)CCOC(=O)NS(=O)(=O)C[C@]45CCC(CC4=O)C5(C)C)CC[C@@H]23)[C@@]2(C)CC[C@@H](O)C[C@@H]12 [Example 58] | < 100 | 366 |
| CC[C@H]1[C@@H](O)[C@@H]2[C@H](CC[C@]3(C)[C@@H]([C@H](C)CCOC(=O)NS(=O)(=O)N4CCOCC4)CC[C@@H]23)[C@@]2(C)CC[C@@H](O)C[C@@H]12 [Example 59] | < 100 | 428 |
| CC[C@H]1[C@@H](O)[C@@H]2[C@H](CC[C@]3(C)[C@@H]([C@H](C)CCOC(=O)NS(=O)(=O)c4ccccc4)CC[C@@H]23)[C@@]2(C)CC[C@@H](O)C[C@@H]12 [Example 60] | < 100 | 309 |
| CC[C@H]1[C@@H](O)[C@@H]2[C@H](CC[C@]3(C)[C@@H]([C@H](C)CCOC(=O)NS(=O)(=O)c4ccc(Cl)cc4)CC[C@@H]23)[C@@]2(C)CC[C@@H](O)C[C@@H]12 [Example 61] | < 100 | 270 |
| CC[C@H]1[C@@H](O)[C@@H]2[C@H](CC[C@]3(C)[C@@H]([C@H](C)CCOC(=O)NS(=O)(=O)c4ccc(C(C)(C)C)s4)CC[C@@H]23)[C@@]2(C)CC[C@@H](O)C[C@@H]12 [Example 62] | < 100 | 299 |
| CC[C@H]1[C@@H](O)[C@@H]2[C@H](CC[C@]3(C)[C@@H]([C@H](C)CCOC(=O)NS(=O)(=O)c4cccc(OC(F)(F)F)c4)CC[C@@H]23)[C@@]2(C)CC[C@@H](O)C[C@@H]12 [Example 63] | < 100 | 396 |
| CC[C@H]1[C@@H](O)[C@@H]2[C@H](CC[C@]3(C)[C@@H]([C@H](C)CCOC(=O)NS(=O)(=O)c4ccc(-c5ccccc5)s4)CC[C@@H]23)[C@@]2(C)CC[C@@H](O)C[C@@H]12 [Example 64] | 100 to 1000 | 281 |
| CC[C@H]1[C@@H](O)[C@@H]2[C@H](CC[C@]3(C)[C@@H]([C@H](C)CCOC(=O)NS(=O)(=O)c4cccc(Cl)c4)CC[C@@H]23)[C@@]2(C)CC[C@@H](O)C[C@@H]12 [Example 65] | < 100 | 322 |
| CC[C@H]1[C@@H](O)[C@@H]2[C@H](CC[C@]3(C)[C@@H]([C@H](C)CCOC(=O)NS(=O)(=O)c4cccc(F)c4)CC[C@@H]23)[C@@]2(C)CC[C@@H](O)C[C@@H]12 [Example 66] | 100 to 1000 | 320 |
| CC[C@H]1[C@@H](O)[C@@H]2[C@H](CC[C@]3(C)[C@@H]([C@H](C)CCOC(=O)NS(=O)(=O)c4ccc5c(c4)CCC5)CC[C@@H]23)[C@@]2(C)CC[C@@H](O)C[C@@H]12 [Example 67] | < 100 | 290 |
| CC[C@H]1[C@@H](O)[C@@H]2[C@H](CC[C@]3(C)[C@@H]([C@H](C)CCOC(=O)NS(=O)(=O)c4ccc(-c5ccccc5)cc4)CC[C@@H]23)[C@@]2(C)CC[C@@H](O)C[C@@H]12 [Example 68] | 100 to 1000 | 286 |
| CC[C@H]1[C@@H](O)[C@@H]2[C@H](CC[C@]3(C)[C@@H]([C@H](C)CCOC(=O)NS(=O)(=O)N4CCCCC4)CC[C@@H]23)[C@@]2(C)CC[C@@H](O)C[C@@H]12 [Example 69] | < 100 | 368 |
| CC[C@H]1[C@@H](O)[C@@H]2[C@H](CC[C@]3(C)[C@@H]([C@H](C)CCOC(=O)NS(=O)(=O)c4ccc(C(C)(C)CO)cc4)CC[C@@H]23)[C@@]2(C)CC[C@@H](O)C[C@@H]12 [Example 70] | < 100 | 333 |
| CC[C@H]1[C@@H](O)[C@@H]2[C@H](CC[C@]3(C)[C@@H]([C@H](C)CCOC(=O)NS(=O)(=O)c4ccccc4F)CC[C@@H]23)[C@@]2(C)CC[C@@H](O)C[C@@H]12 [Example 71] | 100 to 1000 | 317 |
| CC[C@H]1[C@@H](O)[C@@H]2[C@H](CC[C@]3(C)[C@@H]([C@H](C)CCOC(=O)NS(=O)(=O)c4ccccn4)CC[C@@H]23)[C@@]2(C)CC[C@@H](O)C[C@@H]12 [Example 72] | 1000 to 10000 | 305 |
| CC[C@H]1[C@@H](O)[C@@H]2[C@H](CC[C@]3(C)[C@@H]([C@H](C)CCOC(=O)NS(=O)(=O)c4ccncc4)CC[C@@H]23)[C@@]2(C)CC[C@@H](O)C[C@@H]12 [Example 73] | 1000 to 10000 | 352 |
| CC[C@H]1[C@@H](O)[C@@H]2[C@H](CC[C@]3(C)[C@@H]([C@H](C)CCOC(=O)N4CCCS4(=O)=O)CC[C@@H]23)[C@@]2(C)CC[C@@H](O)C[C@@H]12 [Example 74] | 100 to 1000 | 358 |
| CC[C@H]1[C@@H](O)[C@@H]2[C@H](CC[C@]3(C)[C@@H]([C@H](C)CCOC(=O)NS(=O)(=O)C(C)C)CC[C@@H]23)[C@@]2(C)CC[C@@H](O)C[C@@H]12 [Example 75] | < 100 | 386 |
